# Patent US6610677B2, “Pyrazole compounds useful as protein kinase inhibitors” (Vertex Pharmaceuticals Incorporated, priority 2000, dated 2003)
# Key:
# GSK-3β (AA 1-420) = target: T1, GSK-3β (AA 1-420) (Homo sapiens, UniProt P49841); assay: Ki determination for the inhibition of GSK-3 (coupled enzyme system); type: biochemical; settings: 20 μM ATP, 300 μM peptide, 20 nM GSK-3β, 30° C
# T1 construct: GSK-3β (AA 1-420)
# Outline: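 Ki values come from reaction rates over 10 min at 30 °C as a function of inhibitor concentration (12-point titration, 0.002–30 μM, 10 min preincubation). GSK-3β (AA 1-420, 20 nM) phosphorylated 300 μM primed peptide with 20 μM ATP; ADP formation followed by coupled NADH oxidation, pH 7.5.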
# Aurora-2 = target: T2, Aurora-2 (Homo sapiens, UniProt O14965); assay: Ki determination for the inhibition of Aurora-2 (coupled enzyme assay); type: biochemical; settings: 70 nM Aurora-2, peptide LRRASLG, 30° C
# T2 sequence (O14965 1-403): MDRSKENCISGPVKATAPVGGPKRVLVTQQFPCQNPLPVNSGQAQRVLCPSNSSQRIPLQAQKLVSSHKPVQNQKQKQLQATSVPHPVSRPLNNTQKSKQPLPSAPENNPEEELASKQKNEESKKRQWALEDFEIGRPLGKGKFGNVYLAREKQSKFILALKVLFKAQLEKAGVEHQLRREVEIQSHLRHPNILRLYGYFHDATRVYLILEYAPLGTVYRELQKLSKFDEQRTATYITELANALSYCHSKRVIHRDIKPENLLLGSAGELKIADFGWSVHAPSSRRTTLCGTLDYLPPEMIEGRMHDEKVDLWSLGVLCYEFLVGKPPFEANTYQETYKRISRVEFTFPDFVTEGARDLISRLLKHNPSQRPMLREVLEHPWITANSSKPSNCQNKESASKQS
# Description: Compounds were screened in the following manner for their ability to inhibit Aurora-2 using a standard coupled enzyme assay (Fox et al (1998) Protein Sci 7, 2249).
# To an assay stock buffer solution containing 0.1M HEPES 7.5, 10 mM MgCl2, 1 mM DTT, 25 mM NaCl, 2.5 mM phosphoenolpyruvate, […], 30 mg/ml pyruvate kinase, 10 mg/ml lactate dehydrogenase, […], and 800 μM peptide (LRRASLG, American Peptide, Sunnyvale, Calif.) was added a DMSO solution of a compound of the present invention to a final concentration of 30 μM. The resulting mixture was incubated at 30° C. for 10 min. The reaction was initiated by the addition of 10 μL of Aurora-2 stock solution to give a final concentration of 70 nM in the assay. The rates of reaction were obtained by monitoring absorbance at 340 nm over a 5 minute read time at 30° C. using a BioRad Ultramark plate reader (Hercules, Calif.). The Ki values were determined from the rate data as a function of inhibitor concentration.
# T1 sequence (P49841 whole entry, the tested form may be a part): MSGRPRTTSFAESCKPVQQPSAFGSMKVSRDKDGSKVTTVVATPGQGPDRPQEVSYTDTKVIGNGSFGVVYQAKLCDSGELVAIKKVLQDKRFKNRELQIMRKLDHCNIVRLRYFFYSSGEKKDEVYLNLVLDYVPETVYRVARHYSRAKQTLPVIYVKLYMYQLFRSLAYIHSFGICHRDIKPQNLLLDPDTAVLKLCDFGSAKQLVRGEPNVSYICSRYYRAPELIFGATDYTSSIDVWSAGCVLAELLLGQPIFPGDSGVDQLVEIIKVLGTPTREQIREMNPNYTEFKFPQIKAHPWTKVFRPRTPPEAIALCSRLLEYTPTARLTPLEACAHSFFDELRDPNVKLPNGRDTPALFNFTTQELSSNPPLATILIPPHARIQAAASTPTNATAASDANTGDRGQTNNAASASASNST
Ki (GSK-3β (AA 1-420)) [nM],Ki (Aurora-2) [nM],melting point,Structure (SMILES)
100 to 1000,100 to 1000,238 to 239 °C,"OCc1cc(Nc2nc(-c3ccccc3)nc3ccccc23)[nH]n1 [III-74, (5-Hydroxymethyl-2H-pyrazol-3-yl)-(2-phenyl-quinazolin-4-yl)-amine]"
–,–,232 to 233 °C,"c1ccc(-c2nc(Nc3cc(C4CC4)[nH]n3)c3ccncc3n2)cc1 [IV-32, (5-Cyclopropyl-2H-pyrazol-3-yl)-(2-phenyl-pyrido[3,4-d]pyrimidin-4-yl)-amine]"
–,–,> 300 °C,"CC(C)(C)c1cc(Nc2nc(-c3ccncc3)nc3ccccc23)[nH]n1 [III-69, (5-tert-Butyl-2H-pyrazol-3-yl)-(2-pyridin-4-yl-quinazolin-4-yl)-amine]"
100 to 1000,100 to 1000,183 to 185 °C,"Cc1n[nH]c(Nc2nc(-c3ccccc3)nc3ccccc23)c1Br [III-102, (4-Bromo-5-methyl-2H-pyrazol-3-yl)-(2-phenyl-quinazolin-4-yl)-amine]"
–,–,172 to 175 °C,"Cc1cc(Nc2nc(N3CCC(C)CC3)nc(C)c2N)n[nH]1 [IV-7, [5-Amino-6-methyl-2-(4-methylpiperidin-1-yl)-pyrimidin-4-yl]-(5-methyl-2H-pyrazol-3-yl)-amine]"
1000 to 20000,100 to 1000,242 to 244 °C,"Cc1cc(Nc2cc(-c3ccccc3)nc3ccccc23)n[nH]1 [Compound V-4, (5-Methyl-2H-pyrazol-3-yl)-(2-phenyl-quinolin-4-yl)-amine]"
< 100,< 100,218 to 219 °C,"CC(C)c1cc(Nc2nc(-c3ccccc3)nc3ccccc23)[nH]n1 [III-67, (5-Isopropyl-2H-pyrazol-3-yl)-(2-phenyl-quinazolin-4-yl)-amine]"
100 to 1000,< 100,175 °C,Cc1cc(Nc2nc(N3CCC(CCO)CC3)nc3ccccc23)[nH]n1 [III-110]
–,–,223 to 224 °C,"Cc1cc(Nc2nc(N3CCOCC3)nc3ccccc23)[nH]n1 [III-104, (5-Methyl-2H-pyrazol-3-yl)-(2-morpholin-4-yl-quinazolin-4-yl)-amine]"
1000 to 20000,1000 to 20000,> 250 °C,"N#Cc1cn[nH]c1Nc1nc(-c2ccccc2)nc2ccccc12 [III-103, (4-Cyano-2H-pyrazol-3-yl)-(2-phenyl-quinazolin-4-yl)-amine]"
< 100,–,221 to 223 °C,"Nc1ccc2[nH]nc(Nc3nc(-c4ccccc4C(F)(F)F)nc4ccccc34)c2c1 [II-73, (5-Amino-1H-indazol-3-yl)-[2-(2-trifluoromethyl-phenyl)-quinazolin-4-yl]-amine]"
–,–,185 to 187 °C,"Cc1cc(Nc2nc(N3CCC(C)CC3)ncc2[N+](=O)[O-])[nH]n1 [IV-5, [2-(4-Methylpiperidin-1-yl)-5-nitropyrimidin-4-yl]-(5-methyl-2H-pyrazol-3-yl)-amine]"
< 100,< 100,169 to 170 °C,"COCCCc1cc(Nc2nc(-c3ccccc3)nc3ccccc23)[nH]n1 [III-77, [-(3-Methoxyprop-1-yl)-2H-pyrazol-3-yl]-(2-phenyl-quinazolin-4-yl)-amine]"
–,–,235 to 236 °C,"CC(=O)Nc1ccc(Sc2cc(Nc3cc(C)[nH]n3)nc(-c3ccccc3)n2)cc1 [IV-3, [6-(4-Acetamidophenylsulfanyl)-2-phenyl-pyrimidin-4-yl]-(5-methyl-2H-pyrazol-3-yl)-amine]"
< 100,1000 to 20000,235 to 237 °C,"Cc1cc(Nc2n[nH]c3ccccc23)nc(-c2ccccc2C(F)(F)F)n1 [II-19, (1H-Indazol-3-yl)-[6-methyl-2-(2-trifluoromethyl-phenyl)-pyrimidin-4-yl]-amine]"
–,100 to 1000,191 °C,Cc1cc(Nc2nc(N3CCC(N4CCCC4)CC3)nc3ccccc23)[nH]n1 [III-113]
100 to 1000,< 100,191 °C,"Cc1cc(Nc2nc(N3CCC4(CC3)OCCO4)nc3ccccc23)[nH]n1 [III-112, [2-(1,4-Dioxa-8-aza-spiro[4,5]dec-8-yl)-quinazolin-4-yl]-(5-methyl-2H-pyrazol-3-yl)-amine]"
< 100,–,160 to 163 °C,"Cc1nc(-c2ccccc2C(F)(F)F)nc(Nc2n[nH]c3ccc(F)cc23)c1C [II-25, [5,6-Dimethyl-2-(2-trifluoromethyl-phenyl)-pyrimidin-4-yl]-(5-fluoro-1H-indazol-3-yl)-amine]"
< 100,< 100,137 to 145 °C,"c1ccc2c(c1)CCCN2c1nc(Nc2cc(C3CC3)n[nH]2)c2ccccc2n1 [III-121, (5-Cyclopropyl-2H-pyrazol-3-yl)-[2-(3,4-dihydro-2H-quinolin-1-yl)-quinazolin-4-yl]-amine]"
–,–,245 to 246 °C,"Cc1cc(Nc2ccnc(-c3ccccc3)n2)n[nH]1 [IV-1, (5-Methyl-2H-pyrazol-3-yl)-(2-phenyl-pyrimidin-4-yl)-amine]"
100 to 1000,100 to 1000,179 to 181 °C,"Cc1cc(Nc2nc(N3CCNCC3)nc3ccccc23)[nH]n1 [III-105, (5-Methyl-2H-pyrazol-3-yl)-(2-piperazin-1-yl-quinazolin-4-yl)-amine]"
1000 to 20000,1000 to 20000,136 to 137 °C,"CC(C)(C)c1cc(Nc2nc(-c3ccccc3)nc3ccccc23)[nH]n1 [III-68, (5-tert-Butyl-2H-pyrazol-3-yl)-(2-phenyl-quinazolin-4-yl)-amine]"
–,–,225 °C,"Cc1cc(Nc2nc(-c3ccccc3)nc3cnccc23)n[nH]1 [IV-30, (5-Methyl-2H-pyrazol-3-yl)-(2-phenyl-pyrido[3,4-d]pyrimidin-4-yl)-amine]"
–,–,215 to 216 °C,"Cc1cc(Nc2ccnc(N3CCC(C)CC3)n2)n[nH]1 [IV-4, [2-(4-Methylpiperidin-1-yl)-pyrimidin-4-yl]-(5-methyl-2H-pyrazol-3-yl)-amine]"
< 100,–,183 to 186 °C,"Cc1nc(-c2ccccc2C(F)(F)F)nc(Nc2n[nH]c3ccccc23)c1C [II-24, [5,6-Dimethyl-2-(2-trifluoromethyl-phenyl)-pyrimidin-4-yl]-(1H-indazol-3-yl)-amine]"
–,–,228 °C,"Cc1cc(Nc2nc(-c3cc(Cl)cc(Cl)c3)nc3ccccc23)[nH]n1 [III-36, [2-(3,5-Dichlorophenyl)-quinazolin-4-yl]-(5-methyl-2H-pyrazol-3-yl)-amine]"
100 to 1000,100 to 1000,–,"Cc1cc(Nc2nc(-c3ccncc3)nc3cc(Cl)ccc23)[nH]n1 [III-28, (7-Chloro-2-pyridin-4-yl-quinazolin-4-yl)-(5-methyl-2H-pyrazol-3-yl)-amine]"
–,–,234 °C,"Cc1cc(Nc2nc(-c3ccccc3)nc3ncccc23)n[nH]1 [IV-31, (5-Methyl-2H-pyrazol-3-yl)-(2-phenyl-pyrido[2,3-d]pyrimidin-4-yl)-amine]"
–,–,289 to 291 °C (dec.),"O=C(O)c1cc(Nc2nc(-c3ccccc3)nc3ccccc23)[nH]n1 [III-72, (5-Carboxy-2H-pyrazol-3-yl)-(2-phenyl-quinazolin-4-yl)-amine]"

Structure (SMILES),Ki (GSK-3β (AA 1-420)) [nM],Ki (Aurora-2) [nM],melting point
"CC(C)(C)OC(=O)NCCCc1cc(Nc2nc(-c3ccccc3)nc3ccccc23)[nH]n1 [III-80, [5-(3-tert-Butoxycarbonylaminoprop-1-yl)-2H-pyrazol-3-yl]-(2-phenyl-quinazolin-4-yl)-amine]",–,< 100,199 to 200 °C
